Reference: patent US9149038B2, “4-amino-6-(heterocyclic)picolinates and 6-amino-2-(heterocyclic)pyrimidine-4-carboxylates and their use as herbicides” (Dow AgroSciences LLC, priority 2013, dated 2015)
Where two headings read alike, the source gives them in different places.

Test system: Direct Seeded Rice and weed species
Experiment: Postemergence herbicidal activity in direct seeded rice, visual rating after 20-22 days and probit GR20/GR50/GR80/GR90 (Table 14)
Format: in vivo
Conditions: for pest or weed control at 17.5 g/ha / pest or weed control at 35 g/ha / pest or weed control at 70 g/ha: post-emergence, 504 h, postemergence; for pest or weed control at 17.5 g/ha: 17.5 g ai/ha; for pest or weed control at 35 g/ha: 35 g ai/ha; for pest or weed control at 70 g/ha: 70 g ai/ha
How it was run: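 Rice and weeds grown in loam–sand soil (pH about 8.1) in greenhouse to 2nd–3rd true leaf, then sprayed postemergence at 187 L/ha in acetone/DMSO with 1.25% (v/v) Agri-dex crop oil. Injury rated visually 0–100 after 20-22 days versus untreated plants; GR20, GR50, GR80, GR90 obtained by probit analysis across dose rates.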

[1] = BRAPP (broadleaf signalgrass, Brachiaria platyphylla), read-out: Visual Growth Reduction (%) 21 Days After Application BRAPP
[2] = CYPDI (small-flower flatsedge, Cyperus difformis), read-out: Visual Growth Reduction (%) 21 Days After Application CYPDI
[3] = CYPES (yellow nutsedge, Cyperus esculentus), read-out: Visual Growth Reduction (%) 21 Days After Application CYPES
[4] = CYPIR (rice flatsedge, Cyperus iria), read-out: Visual Growth Reduction (%) 21 Days After Application CYPIR
[5] = DIGSA (large crabgrass, Digitaria sanguinalis), read-out: Visual Growth Reduction (%) 21 Days After Application DIGSA
[6] = ECHCG (barnyardgrass, Echinochloa crus-galli), read-out: Visual Growth Reduction (%) 21 Days After Application ECHCG
[7] = ECHCO (junglerice, Echinochloa colonum), read-out: Visual Growth Reduction (%) 21 Days After Application ECHCO
[8] = LEFCH (Chinese sprangletop, Leptochloa chinensis), read-out: Visual Growth Reduction (%) 21 Days After Application LEFCH
[9] = ORYSJ (Oryza sativa, rice crop), read-out: Visual Growth Reduction (%) 21 Days After Application ORYSJ
[10] = ORYSK (Oryza sativa, rice crop), read-out: Visual Growth Reduction (%) 21 Days After Application ORYSK
[11] = SCPJU (Japanese bulrush, Schoenoplectus juncoides Roxb.), read-out: Visual Growth Reduction (%) 21 Days After Application SCPJU
[12] = SEBEX (hemp sesbania, Sesbania exaltata), read-out: Visual Growth Reduction (%) 21 Days After Application SEBEX

COc1c(N)nc(-c2ccc3c(c2F)OC(F)(F)O3)nc1C(=O)O [Compound 66]
GR50 BRAPP (BRAPP (Brachiaria platyphylla), probit analysis, dose for 50 percent growth reduction): 2 g ai/ha | GR80 BRAPP (BRAPP (Brachiaria platyphylla), probit analysis, dose for 80 percent growth reduction): 7 g ai/ha | GR90 BRAPP (BRAPP (Brachiaria platyphylla), probit analysis, dose for 90 percent growth reduction): 16 g ai/ha | GR50 CYPDI (CYPDI (Cyperus difformis), probit analysis, dose for 50 percent growth reduction): 0.42 g ai/ha | GR80 CYPDI (CYPDI (Cyperus difformis), probit analysis, dose for 80 percent growth reduction): 3 g ai/ha | GR90 CYPDI (CYPDI (Cyperus difformis), probit analysis, dose for 90 percent growth reduction): 6 g ai/ha | GR50 CYPES (CYPES (Cyperus esculentus), probit analysis, dose for 50 percent growth reduction): 0.0001 g ai/ha | GR80 CYPES (CYPES (Cyperus esculentus), probit analysis, dose for 80 percent growth reduction): 0.0001 g ai/ha | GR90 CYPES (CYPES (Cyperus esculentus), probit analysis, dose for 90 percent growth reduction): 0.0001 g ai/ha | GR50 CYPIR (CYPIR (Cyperus iria), probit analysis, dose for 50 percent growth reduction): 9 g ai/ha | GR80 CYPIR (CYPIR (Cyperus iria), probit analysis, dose for 80 percent growth reduction): 15 g ai/ha | GR90 CYPIR (CYPIR (Cyperus iria), probit analysis, dose for 90 percent growth reduction): 19 g ai/ha | GR50 DIGSA (DIGSA (Digitaria sanguinalis), probit analysis, dose for 50 percent growth reduction): 2 g ai/ha | GR80 DIGSA (DIGSA (Digitaria sanguinalis), probit analysis, dose for 80 percent growth reduction): 21 g ai/ha | GR90 DIGSA (DIGSA (Digitaria sanguinalis), probit analysis, dose for 90 percent growth reduction): 77 g ai/ha | GR50 ECHCG (ECHCG (Echinochloa crus-galli), probit analysis, dose for 50 percent growth reduction): 3 g ai/ha | GR80 ECHCG (ECHCG (Echinochloa crus-galli), probit analysis, dose for 80 percent growth reduction): 7 g ai/ha | GR90 ECHCG (ECHCG (Echinochloa crus-galli), probit analysis, dose for 90 percent growth reduction): 12 g ai/ha | GR50 ECHCO (ECHCO (Echinochloa colonum), probit analysis, dose for 50 percent growth reduction): 2 g ai/ha | GR80 ECHCO (ECHCO (Echinochloa colonum), probit analysis, dose for 80 percent growth reduction): 6 g ai/ha | GR90 ECHCO (ECHCO (Echinochloa colonum), probit analysis, dose for 90 percent growth reduction): 11 g ai/ha | GR50 LEFCH (LEFCH (Leptochloa chinensis), probit analysis, dose for 50 percent growth reduction): 105 g ai/ha | GR80 LEFCH (LEFCH (Leptochloa chinensis), probit analysis, dose for 80 percent growth reduction): 227 g ai/ha | GR90 LEFCH (LEFCH (Leptochloa chinensis), probit analysis, dose for 90 percent growth reduction): 339 g ai/ha | GR20 ORYSJ (ORYSJ (Oryza sativa, rice crop), probit analysis, dose for 20 percent growth reduction): 2 g ai/ha | GR20 ORYSK (ORYSK (Oryza sativa, rice crop), probit analysis, dose for 20 percent growth reduction): 11 g ai/ha | GR50 SCPJU (SCPJU (Schoenoplectus juncoides Roxb.), probit analysis, dose for 50 percent growth reduction): 0.0001 g ai/ha | GR80 SCPJU (SCPJU (Schoenoplectus juncoides Roxb.), probit analysis, dose for 80 percent growth reduction): 0.0001 g ai/ha | GR90 SCPJU (SCPJU (Schoenoplectus juncoides Roxb.), probit analysis, dose for 90 percent growth reduction): 0.0001 g ai/ha | GR50 SEBEX (SEBEX (Sesbania exaltata), probit analysis, dose for 50 percent growth reduction): 8 g ai/ha | GR80 SEBEX (SEBEX (Sesbania exaltata), probit analysis, dose for 80 percent growth reduction): 19 g ai/ha | GR90 SEBEX (SEBEX (Sesbania exaltata), probit analysis, dose for 90 percent growth reduction): 28 g ai/ha | pest or weed control at 17.5 g/ha [1]: 85 to 94% | pest or weed control at 35 g/ha [1]: 95 to 100% | pest or weed control at 70 g/ha [1]: 95 to 100% | pest or weed control at 17.5 g/ha [2]: 95 to 100% | pest or weed control at 35 g/ha [2]: 95 to 100% | pest or weed control at 70 g/ha [2]: 95 to 100% | pest or weed control at 17.5 g/ha [3]: 95 to 100% | pest or weed control at 35 g/ha [3]: 95 to 100% | pest or weed control at 70 g/ha [3]: 95 to 100% | pest or weed control at 17.5 g/ha [4]: 95 to 100% | pest or weed control at 35 g/ha [4]: 95 to 100% | pest or weed control at 70 g/ha [4]: 95 to 100% | pest or weed control at 17.5 g/ha [5]: 75 to 84% | pest or weed control at 35 g/ha [5]: 85 to 94% | pest or weed control at 70 g/ha [5]: 85 to 94% | pest or weed control at 17.5 g/ha [6]: 95 to 100% | pest or weed control at 35 g/ha [6]: 95 to 100% | pest or weed control at 70 g/ha [6]: 95 to 100% | pest or weed control at 17.5 g/ha [7]: 95 to 100% | pest or weed control at 35 g/ha [7]: 95 to 100% | pest or weed control at 70 g/ha [7]: 95 to 100% | pest or weed control at 17.5 g/ha [8]: 0 to 29% | pest or weed control at 35 g/ha [8]: 0 to 29% | pest or weed control at 70 g/ha [8]: 30 to 44% | pest or weed control at 17.5 g/ha [9]: 60 to 74% | pest or weed control at 35 g/ha [9]: 85 to 94% | pest or weed control at 70 g/ha [9]: 85 to 94% | pest or weed control at 17.5 g/ha [10]: 30 to 44% | pest or weed control at 35 g/ha [10]: 60 to 74% | pest or weed control at 70 g/ha [10]: 85 to 94% | pest or weed control at 17.5 g/ha [11]: 95 to 100% | pest or weed control at 35 g/ha [11]: 95 to 100% | pest or weed control at 70 g/ha [11]: 95 to 100% | pest or weed control at 17.5 g/ha [12]: 60 to 74% | pest or weed control at 35 g/ha [12]: 95 to 100% | pest or weed control at 70 g/ha [12]: 95 to 100%
